Experimental data as given in US20150299238A1, “SYNTHESIS AND USE OF PRODRUG COMPLEXES OF COBALT IN POLYMER THERAPEUTICS” (priority 2014, published 2015).
Entries after “also recorded” stand apart in the source; their conditions may differ.

Key:
SNU-5 cells = test: Nanoparticle uptake by image-based flow cytometry; format: cell-based; conditions: for High uptake (red), percentage of cells / Low uptake (blue), percentage of cells / No uptake (green), percentage of cells: SNU-5, 8 h incubation, 100 μg/mL
Method: An Amnis FlowSight image-based flow cytometer equipped with a 488 nm (60 mW) and Side Scatter (7.85 mW) (EMD Millipore; Seattle, Wash.) was used to analyze cell samples. The FlowSight uses a CCD camera system to simultaneously collect both quantitative fluorescence and image data. For uptake studies, SNU-5 cells were incubated with Co-Alb-FITC NPs in the presence or absence of a commonly used inhibitor of macropinocytosis, 5-(N-ethyl-N-isopropyl)amiloride (EIPA), followed by fixation, and analysis via image-based flow cytometry.
SNU-5 cells were cultured at 37° C. and 5% CO2 in IMDM medium supplemented with 20% fetal bovine serum at cell densities between 1×10^5 and 1×10^6 cells/mL, and Jurkat cells were cultured at 37° C. and 5% CO2 in RPMI-1640 medium supplemented with 10% fetal bovine serum at cell densities between 1×10^5 and 1×10^6 cells/mL. For nanoparticle uptake experiments, cells were transferred to serum-starved IMDM or RPMI-1640 medium (0.1% FBS) and incubated at 37° C. and 5% CO2 for 10-16 h prior to dosing with nanoparticles. Cells (2 mL, 500,000 cells/mL) were incubated with the desired nanoparticle or control particle solution (100 μg/mL) with or without added EIPA for the times indicated. Cells were then washed twice with PBS, fixed for 12 min in 3.7% formaldehyde in PBS, washed twice with PBS, stained with NucBlue® Fixed Cell ReadyProbes® Reagent, and then washed twice more with PBS. Samples were either analyzed immediately or stored at 4° C. in the dark until analysis.

[1] = Analysis of PEGylation reaction by DLS, ethanolamine challenge of the Co linkage; format: physicochemical
Method: While sonicating (Branson, model #2510), human transferrin (0.5 mL of a 1 mg/mL aqueous solution, Sigma-Aldrich, cat. #T0665-50MG, lot #SLBC […]) was added. The solution had no discernible color and was allowed to stand undisturbed for 15 min. Dynamic light scattering (DLS, Microtrac Nanotrac Ultra) was used to measure particle size where the volume average particle size was 13.6 nm (standard deviation=4.2 nm). Hydrogen peroxide (20 μL of a 30% solution, Mallinckrodt AR, cat. #5240, lot #5240Y23470) was added while sonicating and the solution was thoroughly mixed by pipetting. The solution became faintly yellow but with no turbity. The solution was allowed to stand undisturbed for 30 min. Analysis of PEGylation reaction by DLS. The average diameter of both human transferrin (6.8 nm, SD=1.8 nm) and H2N-PEG-COOH (4.8 nm, SD=1.2 nm) were measured by DLS (FIG. 5). […] Addition of ethanolamine (50 mM) at this point led to a decrease in particle size back to 6.4 nm (SD=2.0) thereby degrading the prodrug linkage due to facile exchange of the Co amino ligands.

In the case of `CCN(c1nc(N)c(C(=O)N=C(N)N)nc1Cl)C(C)C` [EIPA, 5-(N-ethyl-N-isopropyl)amiloride], the “Cell viability in the uptake experiment” value (SNU-5 cells; SNU-5, 100 μM EIPA) is reported as “slight decrease in cell viability”, the “Effect on uptake of Co-Alb-FITC NPs” value (SNU-5 cells; SNU-5, pre-incubation with inhibitor) is reported as “dramatic reduction in particle uptake; also recorded: reduce uptake in a dose-dependent manner” and the “Inhibitory effect on uptake over time” value (SNU-5 cells; SNU-5, uptake of Co-Alb-FITC NPs) is reported as “remained relatively constant over 8 h, but became greatly diminished at 24 h”.

With FITC-Alb only the “High uptake (red), percentage of cells” value (SNU-5 cells; EIPA 0 μM) was 13.9%, the “Low uptake (blue), percentage of cells” value (SNU-5 cells; EIPA 0 μM) was 45.4% and the “No uptake (green), percentage of cells” value (SNU-5 cells; EIPA 0 μM) was 40.6%. For the same compound, the “High uptake (red), percentage of cells” value (SNU-5 cells; EIPA 75 μM) was 16.9%, the “Low uptake (blue), percentage of cells” value (SNU-5 cells; EIPA 75 μM) was 11.8% and the “No uptake (green), percentage of cells” value (SNU-5 cells; EIPA 75 μM) was 71.3%. For the same compound, the “Uptake in the presence of EIPA” value (SNU-5 cells; SNU-5, free protein 100 μg/mL, no NPs) was “reduction in uptake”.

For transferrin-PEG conjugate, the “Particle size after addition of ethanolamine” value ([1]; ethanolamine 50 mM, not oxidized (Co(II))) was 6.4 nm and the “Average diameter after addition of ethanolamine” value ([1]; oxidized 30 min with H2O2 (Co(III)) before ethanolamine) was 18.3 nm.
